Measurements reported in ChEMBL document CHEMBL4765450, “The components and activities analysis of a novel anticoagulant candidate dHG-5” (Eur J Med Chem, 2020).
The source made the active and inactive calls. The calls are words filed in the database; no cut-off is given here.

Assays:
Rattus norvegicus [1] = test: (§1) Antithrombotic activity in thromboplastin and stasis-induced Sprague-Dawley rat deep venous thrombosis model assessed as reduction in venous thrombosis by measuring activity potency of oligosaccharides multiplied by the percentage of oligosaccharides in dHG-5 at 4.94 mg/kg, sc administered 1 hr prior to thromboplastin addition for 20 secs followed by establishment of stasis for 20 mins relative to dHG-5; format: functional; conditions: time 80.33 min, 1.339 h
[2] = target: Coagulation factor XI (Homo sapiens) (UniProt P03951); test: Inhibition of factor 11a (unknown origin) at IC50 using S-2366 as substrate preincubated for 1 min followed by chromogenic substrate addition and measured for 2 mins in presence of AT-III; conditions: time 3.0 min
[3] = target: Coagulation factor X (Homo sapiens) (UniProt P00742); test: Inhibition of factor 10a (unknown origin) at IC50 preincubated for 1 min followed by chromogenic substrate addition and measured for 2 mins in presence of AT-III; conditions: time 3.0 min
Plasma [4] = test: Induction of platelet aggregation in human platelet rich plasma at plasma peak concentration of 10 times anti-thrombosis ED50 measured after 10 mins by light transmission aggregometry
[5] = target: T1, Coagulation factor XII (Homo sapiens) (UniProt P00748); test: Inhibition of factor 12a (unknown origin) at IC50 using kallikrein chromogenic substrate preincubated for 1 min followed by chromogenic substrate addition and measured for 2 mins in presence of AT-III; conditions: time 3.0 min
T1 sequence (whole entry): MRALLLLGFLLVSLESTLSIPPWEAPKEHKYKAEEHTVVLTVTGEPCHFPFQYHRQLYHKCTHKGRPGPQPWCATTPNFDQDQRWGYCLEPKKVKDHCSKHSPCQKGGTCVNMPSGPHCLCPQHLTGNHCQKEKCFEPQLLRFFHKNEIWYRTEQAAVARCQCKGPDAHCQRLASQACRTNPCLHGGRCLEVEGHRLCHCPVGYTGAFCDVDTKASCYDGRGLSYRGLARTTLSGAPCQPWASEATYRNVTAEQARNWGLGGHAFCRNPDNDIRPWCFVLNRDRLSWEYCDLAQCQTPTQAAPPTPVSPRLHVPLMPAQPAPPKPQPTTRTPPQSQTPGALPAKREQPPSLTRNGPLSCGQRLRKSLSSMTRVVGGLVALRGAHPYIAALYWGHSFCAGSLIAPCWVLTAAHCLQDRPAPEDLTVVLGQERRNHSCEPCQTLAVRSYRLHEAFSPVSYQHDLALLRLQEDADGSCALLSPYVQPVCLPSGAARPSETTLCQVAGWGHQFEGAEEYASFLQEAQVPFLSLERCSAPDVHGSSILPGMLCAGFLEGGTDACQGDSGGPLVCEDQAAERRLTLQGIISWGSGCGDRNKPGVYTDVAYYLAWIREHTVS

[6] = target: Coagulation factor X (Homo sapiens) (UniProt P00742); test: Inhibition of factor 10a (unknown origin) at IC50 preincubated for 1 min followed by chromogenic substrate addition and measured for 2 mins; conditions: time 3.0 min
[7] = target: Coagulation factor XI (Homo sapiens) (UniProt P03951); test: Inhibition of factor 11a (unknown origin) at IC90 using S-2366 as substrate preincubated for 1 min followed by chromogenic substrate addition and measured for 2 mins in presence of AT-III; conditions: time 3.0 min
Plasma [8] = test: Induction of platelet aggregation in rat wash platelet at plasma peak concentration of 10 times anti-thrombosis ED50 measured after 10 mins by light transmission aggregometry
[9] = target: Coagulation factor X (Homo sapiens) (UniProt P00742); test: Inhibition of factor 10a (unknown origin) at IC90 preincubated for 1 min followed by chromogenic substrate addition and measured for 2 mins in presence of AT-III relative to control; conditions: time 3.0 min
[10] = target: Prothrombin (Homo sapiens) (UniProt P00734); test: Inhibition of factor 2a (unknown origin) at IC90 preincubated for 1 min followed by chromogenic substrate addition and measured for 2 mins in presence of AT-III; conditions: time 3.0 min
Plasma [11] = test: Anticoagulation activity in HCII-deficient human plasma preincubated for 2 mins followed by APTT reagent and measured after 3 mins by coagulometric method; format: functional, cell-free; conditions: time 5.0 min
[12] = target: Coagulation factor XI (Homo sapiens) (UniProt P03951); test: Inhibition of factor 11a (unknown origin) at IC50 using S-2366 as substrate preincubated for 1 min followed by chromogenic substrate addition and measured for 2 mins; conditions: time 3.0 min
[13] = target: T2, Coagulation factor VII (Homo sapiens) (UniProt P08709); test: Inhibition of factor 7a (unknown origin) at IC50 using pefachrome factor VIIa as substrate preincubated for 1 min followed by chromogenic substrate addition and measured for 2 mins; conditions: time 3.0 min
T2 sequence (whole entry): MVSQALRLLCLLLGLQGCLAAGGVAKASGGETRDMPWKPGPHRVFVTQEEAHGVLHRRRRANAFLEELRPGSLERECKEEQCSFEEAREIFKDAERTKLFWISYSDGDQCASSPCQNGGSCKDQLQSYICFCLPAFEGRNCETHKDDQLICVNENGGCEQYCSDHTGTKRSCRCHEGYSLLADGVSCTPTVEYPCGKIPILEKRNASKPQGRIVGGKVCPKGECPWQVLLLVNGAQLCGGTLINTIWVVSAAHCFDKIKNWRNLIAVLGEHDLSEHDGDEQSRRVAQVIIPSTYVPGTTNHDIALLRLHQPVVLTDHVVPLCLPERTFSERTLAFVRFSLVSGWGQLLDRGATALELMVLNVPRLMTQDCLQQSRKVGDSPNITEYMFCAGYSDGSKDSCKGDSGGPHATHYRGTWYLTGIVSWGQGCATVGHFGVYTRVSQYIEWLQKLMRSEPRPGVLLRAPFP

[14] = target: T2, Coagulation factor VII (Homo sapiens); test: Inhibition of factor 7a (unknown origin) at IC50 using pefachrome factor VIIa as substrate preincubated for 1 min followed by chromogenic substrate addition and measured for 2 mins in presence of AT-III; conditions: time 3.0 min
Plasma [15] = test: (§2) Anticoagulation activity in human plasma assessed as drug level causing 20 times doubling of APTT preincubated for 2 mins followed by APTT reagent and measured after 3 mins by coagulometric method relative to dHG-5; format: functional; conditions: time 5 min
[16] = target: Prothrombin (Homo sapiens) (UniProt P00734); test: Inhibition of factor 2a (unknown origin) at IC50 preincubated for 1 min followed by chromogenic substrate addition and measured for 2 mins; conditions: time 3.0 min
[17] = target: T1, Coagulation factor XII (Homo sapiens); test: Inhibition of factor 12a (unknown origin) at IC50 using kallikrein chromogenic substrate preincubated for 1 min followed by chromogenic substrate addition and measured for 2 mins; conditions: time 3.0 min
Plasma [18] = test: as §2, with “of APTT by measuring activity potency of oligosaccharides multiplied by the percentage of oligosaccharides in dHG-5 preincubated for” for “of APTT preincubated for”; format: functional; conditions: time 5 min
[19] = target: T3, Coagulation factor IX/VIII (Homo sapiens) (UniProt P00740+P00451); test: (§3) Inhibition of human citrated plasma iXase (factor 8a-factor 9a complex) preincubated for 2 mins followed by factor 10 addition and measured after 1 min by FXa chromogenic substrate SXa-11 based assay relative to dHG-5; format: protein-complex assay; conditions: time 3.0 min
[20] = target: T3, Coagulation factor IX/VIII (Homo sapiens); test: as §3, with “complex) assessed as activity potency of oligosaccharides multiplied by the percentage of oligosaccharides in dHG-5” for “complex)”; format: protein-complex assay; conditions: time 3.0 min
Plasma [21] = test: Anticoagulation activity in AT-III-deficient human plasma preincubated for 2 mins followed by APTT reagent and measured after 3 mins by coagulometric method; format: functional, cell-free; conditions: time 5.0 min
Coagulation factor IX [22] = target: T4, Coagulation factor IX (Homo sapiens, UniProt P00740); test: Inhibition of factor 9a (unknown origin) binding to immobilized biotinylated oHG-11 by biolayer interferometry relative to dHG-5
[23] = target: Prothrombin (Homo sapiens) (UniProt P00734); test: Inhibition of factor 2a (unknown origin) at IC50 preincubated for 1 min followed by chromogenic substrate addition and measured for 2 mins in presence of AT-III; conditions: time 3.0 min
Rattus norvegicus [24] = test: Antithrombotic activity in thromboplastin and stasis-induced Sprague-Dawley rat deep venous thrombosis model assessed as reduction in venous thrombosis at 4.94 mg/kg, sc administered 1 hr prior to thromboplastin addition for 20 secs followed by establishment of stasis for 20 mins relative to dHG-5; format: functional; conditions: time 80.33 min, 1.339 h
Coagulation factor IX [25] = target: T4, Coagulation factor IX; test: Inhibition of factor 9a (unknown origin) binding to immobilized biotinylated oHG-11 assessed as activity potency of oligosaccharides multiplied by the percentage of oligosaccharides in dHG-5 by biolayer interferometry relative to dHG-5
Rattus norvegicus [26] = test: as §1, with “13.5” for “4.94”; format: functional; conditions: time 80.33 min, 1.339 h
Coagulation factor IX [27] = target: T4, Coagulation factor IX; test: Inhibition of factor 9a (unknown origin) binding to immobilized biotinylated oHG-11 by biolayer interferometry
Rattus norvegicus [28] = test: Antithrombotic activity in thromboplastin and stasis-induced Sprague-Dawley rat deep venous thrombosis model assessed as reduction in venous thrombosis at 13.5 mg/kg, sc administered 1 hr prior to thromboplastin addition for 20 secs followed by establishment of stasis for 20 mins relative to dHG-5; format: functional; conditions: time 80.33 min, 1.339 h
[29] = target: Coagulation factor IX/VIII (Homo sapiens, UniProt P00451+P00740); test: Inhibition of human citrated plasma iXase (factor 8a-factor 9a complex) preincubated for 2 mins followed by factor 10 addition and measured after 1 min by FXa chromogenic substrate SXa-11 based assay; format: protein-complex assay
Plasma [30] = test: Anticoagulation activity in human plasma assessed as drug level causing 20 times doubling of APTT preincubated for 2 mins followed by APTT reagent and measured after 3 mins by coagulometric method; format: functional; conditions: time 5 min
Rattus norvegicus [31] = test: Antithrombotic activity in thromboplastin and stasis-induced Sprague-Dawley rat deep venous thrombosis model assessed as reduction in venous thrombosis at 13.5 mg/kg, sc administered 1 hr prior to thromboplastin addition for 20 secs followed by establishment of stasis for 20 mins; format: functional; design: scale not given: the % may be the effect or the level left; conditions: time 80.33 min, 1.339 h

T4 sequence (P00740 47-191 limits assumed): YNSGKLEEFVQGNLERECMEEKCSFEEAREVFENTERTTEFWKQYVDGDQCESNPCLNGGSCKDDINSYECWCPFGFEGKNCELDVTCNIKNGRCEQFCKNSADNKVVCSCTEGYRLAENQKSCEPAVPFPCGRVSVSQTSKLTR
T4 sequence (P00740 227-461 limits assumed): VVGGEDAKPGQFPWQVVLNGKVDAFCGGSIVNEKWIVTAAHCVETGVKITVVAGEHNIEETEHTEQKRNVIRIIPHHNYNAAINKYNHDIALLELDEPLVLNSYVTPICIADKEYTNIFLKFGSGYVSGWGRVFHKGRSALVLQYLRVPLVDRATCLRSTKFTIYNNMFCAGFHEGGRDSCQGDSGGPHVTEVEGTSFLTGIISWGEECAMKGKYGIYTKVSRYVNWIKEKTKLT
Sequence of Coagulation factor X (Homo sapiens) (P00742 41-179 limits assumed): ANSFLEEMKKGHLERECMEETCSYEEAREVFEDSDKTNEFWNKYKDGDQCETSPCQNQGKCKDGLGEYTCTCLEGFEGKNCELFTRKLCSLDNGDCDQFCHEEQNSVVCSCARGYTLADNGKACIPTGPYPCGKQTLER
Sequence of Coagulation factor X (Homo sapiens) (P00742 235-488 limits assumed): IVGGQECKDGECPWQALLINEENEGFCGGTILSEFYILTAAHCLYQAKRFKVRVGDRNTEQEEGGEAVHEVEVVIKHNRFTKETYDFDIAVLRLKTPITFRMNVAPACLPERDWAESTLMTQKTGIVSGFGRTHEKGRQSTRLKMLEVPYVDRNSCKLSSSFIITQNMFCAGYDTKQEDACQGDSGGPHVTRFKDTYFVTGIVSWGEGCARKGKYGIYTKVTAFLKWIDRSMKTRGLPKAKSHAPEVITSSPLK
Sequence of Coagulation factor XI (Homo sapiens) (P03951 19-387 limits assumed): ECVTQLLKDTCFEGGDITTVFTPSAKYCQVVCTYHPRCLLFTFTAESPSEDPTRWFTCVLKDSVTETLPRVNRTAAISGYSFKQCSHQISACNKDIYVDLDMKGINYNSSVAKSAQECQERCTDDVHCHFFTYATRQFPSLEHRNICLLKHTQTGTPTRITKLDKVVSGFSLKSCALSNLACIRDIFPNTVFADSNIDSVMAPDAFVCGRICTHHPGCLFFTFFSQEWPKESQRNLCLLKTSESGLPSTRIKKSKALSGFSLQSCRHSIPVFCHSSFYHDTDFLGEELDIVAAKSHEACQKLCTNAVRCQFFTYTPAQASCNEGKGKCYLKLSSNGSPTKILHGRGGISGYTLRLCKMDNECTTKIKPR
Sequence of Coagulation factor XI (Homo sapiens) (P03951 388-625 limits assumed): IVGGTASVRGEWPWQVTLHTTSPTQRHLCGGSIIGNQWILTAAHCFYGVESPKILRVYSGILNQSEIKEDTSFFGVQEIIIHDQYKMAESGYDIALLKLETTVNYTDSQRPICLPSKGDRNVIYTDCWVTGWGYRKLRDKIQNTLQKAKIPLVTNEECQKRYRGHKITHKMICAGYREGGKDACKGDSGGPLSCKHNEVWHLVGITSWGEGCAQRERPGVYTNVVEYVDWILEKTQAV
Sequence of Coagulation factor IX/VIII (P00451 20-759 limits assumed): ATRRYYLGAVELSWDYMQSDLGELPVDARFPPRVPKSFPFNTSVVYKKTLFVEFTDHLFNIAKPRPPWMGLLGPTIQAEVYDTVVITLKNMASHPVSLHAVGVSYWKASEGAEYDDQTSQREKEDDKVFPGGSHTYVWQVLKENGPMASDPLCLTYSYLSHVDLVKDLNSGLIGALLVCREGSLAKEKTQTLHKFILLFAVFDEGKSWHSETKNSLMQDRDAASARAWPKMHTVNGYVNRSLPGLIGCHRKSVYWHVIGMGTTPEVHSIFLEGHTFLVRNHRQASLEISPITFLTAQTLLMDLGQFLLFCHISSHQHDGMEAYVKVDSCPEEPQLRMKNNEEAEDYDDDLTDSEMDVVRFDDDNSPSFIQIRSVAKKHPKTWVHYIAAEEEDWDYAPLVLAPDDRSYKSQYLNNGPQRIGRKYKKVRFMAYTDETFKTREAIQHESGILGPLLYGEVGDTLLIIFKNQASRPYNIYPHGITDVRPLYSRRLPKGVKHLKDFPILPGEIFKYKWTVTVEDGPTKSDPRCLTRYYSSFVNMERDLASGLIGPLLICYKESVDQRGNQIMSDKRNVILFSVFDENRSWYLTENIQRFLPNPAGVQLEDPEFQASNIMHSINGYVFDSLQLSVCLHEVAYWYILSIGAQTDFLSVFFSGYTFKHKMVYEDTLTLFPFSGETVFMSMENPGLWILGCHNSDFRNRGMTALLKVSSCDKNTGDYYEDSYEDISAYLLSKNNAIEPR
Sequence of Coagulation factor IX/VIII (P00451 1668-2351 limits assumed): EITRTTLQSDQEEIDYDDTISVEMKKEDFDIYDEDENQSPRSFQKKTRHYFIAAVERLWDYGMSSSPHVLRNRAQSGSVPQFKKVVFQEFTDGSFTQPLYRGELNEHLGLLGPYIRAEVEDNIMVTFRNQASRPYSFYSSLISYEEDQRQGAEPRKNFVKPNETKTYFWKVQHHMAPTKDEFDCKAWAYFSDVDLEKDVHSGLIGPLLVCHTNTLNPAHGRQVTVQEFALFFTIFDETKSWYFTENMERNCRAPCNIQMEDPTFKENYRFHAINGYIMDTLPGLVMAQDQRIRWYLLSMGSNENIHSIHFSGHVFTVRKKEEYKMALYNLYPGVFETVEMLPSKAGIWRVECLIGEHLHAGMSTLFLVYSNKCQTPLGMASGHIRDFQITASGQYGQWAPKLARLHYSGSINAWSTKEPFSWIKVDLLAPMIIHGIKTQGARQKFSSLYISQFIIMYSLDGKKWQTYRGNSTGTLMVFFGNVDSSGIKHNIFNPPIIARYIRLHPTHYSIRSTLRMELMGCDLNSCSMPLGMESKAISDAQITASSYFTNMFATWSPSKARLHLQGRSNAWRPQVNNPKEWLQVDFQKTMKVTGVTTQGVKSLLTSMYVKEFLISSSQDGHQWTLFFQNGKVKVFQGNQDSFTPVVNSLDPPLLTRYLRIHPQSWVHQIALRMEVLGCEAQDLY
Sequence of Coagulation factor IX/VIII (P00740 47-191 limits assumed): as the sequence (P00740 47-191 limits assumed) above
Sequence of Coagulation factor IX/VIII (P00740 227-461 limits assumed): as the sequence (P00740 227-461 limits assumed) above

Compound	inhibition [2]	inhibition [3]	inhibition [5]	inhibition [6]	inhibition [7]	inhibition [9]	inhibition [10]	Activity (Plasma [11])	inhibition [12]	inhibition (active/not active) [13]	inhibition [14]	Ratio (Plasma [15])	inhibition [16]	inhibition [17]	Ratio (Plasma [18])	Ratio [19]	Ratio [20]	Activity (Plasma [21])	Ratio (Coagulation factor IX [22])	inhibition [23]	also measured
CC(=O)N[C@H]1[C@H](O[C@@H]([C@H](O[C@@H]2O[C@@H](C)[C@@H](OS(=O)(=O)[O-])[C@@H](OS(=O)(=O)O)[C@@H]2O)[C@@H](O)CO)[C@H](O)C(=O)[O-])O[C@@H](COS(=O)(=O)[O-])[C@H](OS(=O)(=O)[O-])[C@@H]1O[C@@H]1O[C@H](C(=O)[O-])[C@@H](O[C@@H]2O[C@H](COS(=O)(=O)[O-])[C@H](OS(=O)(=O)[O-])[C@H](O[C@@H]3OC(C(=O)[O-])=C[C@H](O[C@@H]4O[C@@H](C)[C@@H](OS(=O)(=O)[O-])[C@@H](S(=O)(=O)O)[C@@H]4O)[C@H]3O)[C@H]2NC(C)=O)[C@H](O[C@@H]2O[C@@H](C)[C@@H](OS(=O)(=O)[O-])[C@@H](OS(=O)(=O)O)[C@@H]2O)[C@@H]1O.[Na+].[Na+].[Na+].[Na+].[Na+].[Na+].[Na+].[Na+].[Na+].[Na+]	inactive	inactive	inactive	inactive	Active	14.2%	Active	Active	inactive	inactive	inactive	10.96 U	inactive	inactive	1.91 U	8.98 U	1.56 U	Active	13 U	inactive	Ratio (Rattus norvegicus [1]): 4.23 U; Activity (Plasma [4]): Not Active; Activity (Plasma [8]): Not Active; Ratio (Rattus norvegicus [24]): 24.31 U; Ratio (Coagulation factor IX [25]): 2.27 U
CC(=O)N[C@H]1[C@H](O[C@@H]([C@H](O[C@@H]2O[C@@H](C)[C@@H](OS(=O)(=O)[O-])[C@@H](OS(=O)(=O)O)[C@@H]2O)[C@@H](O)CO)[C@H](O)C(=O)[O-])O[C@H](COS(=O)(=O)[O-])[C@H](OS(=O)(=O)[O-])[C@@H]1O[C@@H]1OC(C(=O)[O-])=C[C@H](O[C@@H]2O[C@@H](C)[C@@H](OS(=O)(=O)[O-])[C@@H](OS(=O)(=O)O)[C@@H]2O)[C@H]1O.[Na+].[Na+].[Na+].[Na+].[Na+].[Na+]	inactive	inactive	inactive	inactive	Active	14.2%	Active	Active	inactive	Active	inactive	0.9 U	inactive	inactive	0.04 U	0.36 U	0.02 U	Active	3.32 U	inactive	Ratio (Rattus norvegicus [26]): 0.19 U; IC50 (Coagulation factor IX [27]): 12.9 µM; Ratio (Rattus norvegicus [28]): 3.96 U; IC50 [29]: > 3 µM; EC (Plasma [30]): 199 µM; Ratio (Coagulation factor IX [25]): 0.16 U; Activity (Rattus norvegicus [31]): 30.8%
